Target: EGFR L858R/T790M/C797S mutant enzyme (Homo sapiens (Human), UniProt P00533, C797S/L858R/T790M)
Experiment: EGFR mutant enzyme inhibition, HTRF system (Cisbio)
Type: biochemical
Conditions: ATP 1 mM, 37° C. for 2 hours
Description: In order to evaluate the inhibitory activity of the compound represented by formula 1 according to the present invention against EGFR mutation, the following experiment was performed.
The activity of the compound of the present invention against EGFR mutant enzyme was measured using the HTRF system of Cisbio Co. As an EGFR L858R/T790M/C797S mutant enzyme, a protein provided by SignalChem was purchased and used as an enzyme source.
The composition of the assay buffer used for the activity measurement was as follows: 50 mM Tris-HCl (pH 7.5), 100 mM NaCl, 7.5 mM MgCl2, 3 mM KCl, 0.01% Tween 20, 0.1% BSA, and 1 mM DTT. Herein, an enzyme reaction was performed using a peptide substrate labeled with ATP at the concentration of 1 mM and biotin at the concentration of 0.5 μM. The analysis of the EGFR activity inhibitory effect of the compound was performed according to the following analytical reaction recipe.
Component 1: 4 μl of EGFR mutant enzyme
Component 2: 2 μl of compound solution
Component 3: 4 μl of ATP and biotin-labeled peptide mixture
The enzyme reaction was initiated by mixing the component 1 and the component 2 first and then adding the component 3 thereto. After reacting the mixture at 37° C. for 2 hours, 10 μl of a measurement solution consisting of streptavidin-XL665 and europium-labeled anti-phosphotyrosine antibody provided by Cisbio was added to the enzyme reaction solution, followed by reaction at room temperature for 1 hour. Finally, the ratio of the fluorescence values at 615 nm and 665 nm was calculated using Envision equipment of Perkin-Elmer to quantitatively measure the enzyme activity and confirm the inhibitory ability of the compound. The values measured at 7 concentrations of the compound were analyzed using Prism program (version 5.01, Graphpad Software, Inc.), and the IC50 value, an index of the inhibitory ability of the compound, was calculated.

Sequence of EGFR L858R/T790M/C797S mutant enzyme (P00533 25-1210 T790M/C797S/L858R): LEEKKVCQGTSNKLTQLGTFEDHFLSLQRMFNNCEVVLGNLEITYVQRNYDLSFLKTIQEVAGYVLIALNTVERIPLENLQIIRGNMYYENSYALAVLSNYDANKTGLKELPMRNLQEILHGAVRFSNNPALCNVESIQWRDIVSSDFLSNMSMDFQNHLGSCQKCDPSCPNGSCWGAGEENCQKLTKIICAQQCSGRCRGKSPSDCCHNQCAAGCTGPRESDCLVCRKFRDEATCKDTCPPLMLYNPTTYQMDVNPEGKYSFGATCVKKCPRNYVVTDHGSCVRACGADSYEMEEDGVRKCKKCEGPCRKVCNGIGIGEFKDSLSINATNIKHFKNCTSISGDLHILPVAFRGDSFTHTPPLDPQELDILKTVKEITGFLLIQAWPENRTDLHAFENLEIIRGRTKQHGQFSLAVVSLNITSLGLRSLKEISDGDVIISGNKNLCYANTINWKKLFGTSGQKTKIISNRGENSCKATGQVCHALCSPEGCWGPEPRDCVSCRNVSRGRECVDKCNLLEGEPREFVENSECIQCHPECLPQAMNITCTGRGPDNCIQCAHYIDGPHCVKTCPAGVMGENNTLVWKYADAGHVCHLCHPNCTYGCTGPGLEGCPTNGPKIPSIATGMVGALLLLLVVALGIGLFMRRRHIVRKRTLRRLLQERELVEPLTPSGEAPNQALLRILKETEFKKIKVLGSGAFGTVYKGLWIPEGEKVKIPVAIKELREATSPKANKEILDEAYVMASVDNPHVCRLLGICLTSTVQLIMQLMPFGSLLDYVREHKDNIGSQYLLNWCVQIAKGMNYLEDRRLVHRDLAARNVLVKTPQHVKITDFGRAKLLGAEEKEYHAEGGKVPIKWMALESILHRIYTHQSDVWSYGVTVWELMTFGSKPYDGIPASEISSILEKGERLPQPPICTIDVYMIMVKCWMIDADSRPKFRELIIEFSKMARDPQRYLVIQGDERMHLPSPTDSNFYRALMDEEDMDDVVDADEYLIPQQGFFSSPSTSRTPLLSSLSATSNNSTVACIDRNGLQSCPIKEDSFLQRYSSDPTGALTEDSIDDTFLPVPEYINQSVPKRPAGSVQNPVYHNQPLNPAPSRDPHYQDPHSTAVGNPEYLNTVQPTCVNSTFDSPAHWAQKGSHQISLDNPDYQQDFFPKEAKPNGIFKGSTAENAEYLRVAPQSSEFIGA

SMILES	IC50
O=C1c2ccccc2CN1C(c1nc2ccc(F)cc2[nH]1)c1ccccc1O (stereo not drawn) [Example 2, 2-((6-fluoro-1H-benzo[d]imidazole-2-yl)(2-hydroxyphenyl)methyl)isoindolin-1-one]	2200 nM
Nc1ccc(-c2ccc3c(c2)C(=O)N([C@@H](c2cc4ccccc4[nH]2)c2cc(Cl)ccc2O)C3)cc1 [Example 30, (R)-6-(4-aminophenyl)-2-((5-chloro-2-hydroxyphenyl)(1H-indole-2-yl)methyl)isoindolin-1-one]	120 nM
CN1CCN(c2ccc(-c3ccc4c(c3)C(=O)N([C@@H](c3cc5ccccc5[nH]3)c3cc(Cl)ccc3O)C4)cc2)CC1 [Example 44, (R)-2-((5-chloro-2-hydroxyphenyl)(1H-indole-2-yl)methyl)-6-(4-(4-methylpiperazine-1-yl)phenyl)isoindolin-1-one]	190 nM
O=C1c2cc(-c3ccc(N4CCOCC4)cc3)ccc2CN1[C@@H](c1cc2ccccc2[nH]1)c1cc(Cl)ccc1O [Example 46, (R)-2-((5-chloro-2-hydroxyphenyl)(1H-indole-2-yl)methyl)-6-(4-morpholinophenyl)isoindolin-1-one]	110 nM
O=C1c2ccccc2CN1[C@@H](c1cc2ccccc2[nH]1)c1cc(F)c(F)cc1O [Example 22, (R)-2-((4,5-difluoro-2-hydroxyphenyl)(1H-indole-2-yl)methyl)isoindolin-1-one]	> 10000 nM
Nc1ccc(-c2ccc3c(c2)C(=O)N([C@@H](c2cc4ccccc4[nH]2)c2cc(F)ccc2O)C3)cc1 [Example 29, (R)-6-(4-aminophenyl)-2-((5-fluoro-2-hydroxyphenyl)(1H-indole-2-yl)methyl)isoindolin-1-one]	280 nM
O=C1c2cc(-c3ccc(N4CCNCC4)cc3)ccc2CN1C(c1nc2ccccc2[nH]1)c1cc(F)ccc1O (stereo not drawn) [Example 10, 2-((1H-benzo[d]imidazole-2-yl)(5-fluoro-2-hydroxyphenyl)methyl)-6-(4-(piperazine-1-yl)phenyl)isoindolin-1-one]	99 nM
O=C1c2cc(-c3ccc(N4CCNCC4)cc3)ccc2CN1[C@@H](c1cc2ccccc2[nH]1)c1ccccc1O [Example 31, (R)-2-((2-hydroxyphenyl)(1H-indole-2-yl)methyl)-6-(4-(piperazine-1-yl)phenyl)isoindolin-1-one]	18 nM
Nc1ccc(-c2ccc3c(c2)C(=O)N(C(c2nc4ccccc4[nH]2)c2cc(Cl)ccc2O)C3)cc1 (stereo not drawn) [Example 14, 2-((1H-benzo[d]imidazole-2-yl)(5-chloro-2-hydroxyphenyl)methyl)-6-(4-aminophenyl)isoindolin-1-one]	1300 nM
O=C1c2cc(-c3ccc(N4CCOCC4)cc3)ccc2CN1C(c1nc2ccccc2[nH]1)c1cc(F)ccc1O (stereo not drawn) [Example 39, 2-((1H-benzo[d]imidazole-2-yl)(5-fluoro-2-hydroxyphenyl)methyl)-6-(4-morpholinophenyl)isoindolin-1-one]	960 nM
O=C1c2cc(C3=CCNCC3)ccc2CN1C(c1nc2ccccc2[nH]1)c1cc(Cl)ccc1O (stereo not drawn) [Example 17]	1100 nM
Cc1ccc(O)c([C@H](c2cc3ccccc3[nH]2)N2Cc3ccccc3C2=O)c1 [Example 20, (R)-2-((2-hydroxy-5-methylphenyl)(1H-indole-2-yl)methyl)isoindolin-1-one]	1600 nM
O=C1c2ccccc2CN1C(c1nc2cc(Cl)c(Cl)cc2[nH]1)c1ccccc1O (stereo not drawn) [Example 5, 2-((5,6-dichloro-1H-benzo[d]imidazole-2-yl)(2-hydroxyphenyl)methyl)isoindolin-1-one]	7000 nM
O=C1c2cc(C3=CCNCC3)ccc2CN1[C@@H](c1cc2ccccc2[nH]1)c1ccccc1O [Example 34, (R)-2-((2-hydroxyphenyl)(1H-indole-2-yl)methyl)-6-(1,2,3,6-tetrahydropyridine-4-yl)isoindolin-1-one]	2900 nM
O=C1c2ccccc2CN1[C@@H](c1cc2ccccc2[nH]1)c1cc(Cl)ccc1O [Example 26, (R)-2-((5-chloro-2-hydroxyphenyl)(1H-indole-2-yl)methyl)isoindolin-1-one]	190 nM
O=C1c2cc(-c3ccc(-c4ccncc4)cc3)ccc2CN1C(c1nc2ccccc2[nH]1)c1cc(Cl)ccc1O (stereo not drawn) [Example 42, 2-((1H-benzo[d]imidazole-2-yl)(5-chloro-2-hydroxyphenyl)methyl)-6-(4-(pyridine-4-yl)phenyl)isoindolin-1-one]	450 nM
O=C1c2cc(-c3ccc(N4CCOCC4)cc3)ccc2CN1C(c1nc2ccccc2[nH]1)c1cc(Cl)ccc1O (stereo not drawn) [Example 40, 2-((1H-benzo[d]imidazole-2-yl)(5-chloro-2-hydroxyphenyl)methyl)-6-(4-morpholinophenyl)isoindolin-1-one]	370 nM
O=C1c2cc(N3CCNCC3)ccc2CN1[C@@H](c1cc2ccccc2[nH]1)c1cc(F)ccc1O [Example 37, (R)-2-((5-fluoro-2-hydroxyphenyl)(1H-indole-2-yl)methyl)-6-(piperazine-1-yl)isoindolin-1-one]	> 10000 nM
O=C1c2cc(C3=CCNCC3)ccc2CN1C(c1nc2ccccc2[nH]1)c1ccccc1O (stereo not drawn) [Example 15, 2-((1H-benzo[d]imidazole-2-yl)(2-hydroxyphenyl)methyl)-6-(1,2,3,6-tetrahydropyridine-4-yl)isoindolin-1-one]	8800 nM

Results, then the compound that gave them:

IC50	SMILES
> 10000 nM	O=C1c2cc(-c3ccc(-c4ccncc4)cc3)ccc2CN1[C@@H](c1cc2ccccc2[nH]1)c1cc(Cl)ccc1O [Example 48, (R)-2-((5-chloro-2-hydroxyphenyl)(1H-indole-2-yl)methyl)-6-(4-(pyridine-4-yl)phenyl)isoindolin-1-one]
790 nM	O=C1c2cc(-c3ccc(N4CCCC4)cc3)ccc2CN1[C@@H](c1cc2ccccc2[nH]1)c1cc(F)ccc1O [Example 67, (R)-2-((5-fluoro-2-hydroxyphenyl)(1H-indole-2-yl)methyl)-6-(4-(pyrrolidine-1-yl)phenyl)isoindolin-1-one]
300 nM	O=C1c2cc(-c3ccc(N4CCN(C5CCNCC5)CC4)cc3)ccc2CN1[C@@H](c1cc2ccccc2[nH]1)c1cc(F)ccc1O [Example 63, (R)-2-((5-fluoro-2-hydroxyphenyl)(1H-indole-2-yl)methyl)-6-(4-(4-(piperidine-4-yl)piperazine-1-yl)phenyl)isoindolin-1-one]
66 nM	CN(C)C1CCN(c2ccc(-c3ccc4c(c3)C(=O)N([C@@H](c3cc5ccccc5[nH]3)c3cc(F)ccc3O)C4)cc2)CC1 [Example 61, (R)-6-(4-(4-(dimethylamino)piperidine-1-yl)phenyl)-2-((5-fluoro-2-hydroxyphenyl)(1H-indole-2-yl)methyl)-isoindolin-1-one]
240 nM	CC(=O)N1CCN(c2ccc(-c3ccc4c(c3)C(=O)N([C@@H](c3cc5ccccc5[nH]3)c3cc(F)ccc3O)C4)cc2)CC1 [Example 54, (R)-6-(4-(4-acetylpiperazine-1-yl)phenyl)-2-((5-fluoro-2-hydroxyphenyl)(1H-indole-2-yl)methyl)-isoindolin-1-one]
> 10000 nM	O=C1c2cc(-c3ccc(C4=CCNCC4)cc3)ccc2CN1[C@@H](c1cc2cc(F)ccc2[nH]1)c1cc(F)ccc1O [Example 52, (R)-2-((5-fluoro-1H-indole-2-yl)(5-fluoro-2-hydroxyphenyl)methyl)-6-(4-(1,2,3,6-tetrahydropyridine-4-yl)phenyl)isoindolin-1-one]
420 nM	O=C1c2cc(-c3ccc(N4CCNCC4)cc3)ccc2CN1[C@@H](c1cc2cccnc2[nH]1)c1cc(Cl)ccc1O [Example 50, (R)-2-((5-chloro-2-hydroxyphenyl)(1H-pyrrolo[2,3-b]pyridine-2-yl)methyl)-6-(4-(piperazine-4-yl)phenyl)isoindolin-1-one]
250 nM	O=C1c2cc(-c3ccc(N4CCCC4)cc3)ccc2CN1[C@@H](c1cc2ccccc2[nH]1)c1cc(Cl)ccc1O [Example 68, (R)-2-((5-chloro-2-hydroxyphenyl)(1H-indole-2-yl)methyl)-6-(4-(pyrrolidine-1-yl)phenyl)isoindolin-1-one]
40 nM	CN1CCN(C2CCN(c3ccc(-c4ccc5c(c4)C(=O)N([C@@H](c4cc6ccccc6[nH]4)c4cc(F)ccc4O)C5)cc3)CC2)CC1 [Example 57, (R)-2-((5-fluoro-2-hydroxyphenyl)(1H-indole-2-yl)methyl)-6-(4-(4-(4-methylpiperazine-1-yl)piperidine-1-yl)phenyl)isoindolin-1-one]
2200 nM	CN(C)C1CCN(c2ccc(-c3ccc4c(c3)C(=O)N([C@@H](c3cc5ccccc5[nH]3)c3cc(Cl)ccc3O)C4)cc2)CC1 [Example 62, (R)-2-((5-chloro-2-hydroxyphenyl)(1H-indole-2-yl)methyl)-6-(4-(4-(dimethylamino)piperidine-1-yl)phenyl)-isoindolin-1-one]
260 nM	O=C1c2cc(-c3ccc(N4CCN(C5CCNCC5)CC4)cc3)ccc2CN1[C@@H](c1cc2ccccc2[nH]1)c1cc(Cl)ccc1O [Example 64, (R)-2-((5-chloro-2-hydroxyphenyl)(1H-indole-2-yl)methyl)-6-(4-(4-(piperidine-4-yl)piperazine-1-yl)phenyl)isoindolin-1-one]

Source: patent US11976059B2 (KOREA RESEARCH INSTITUTE OF CHEMICAL TECHNOLOGY, priority 2018, dated 2024)
